Common to all, as to format: cell-based
The subject of one data set is LX-2 cells. Description: Cytotoxicity test (Cell Counting Kit-8). The note with it: ASTX up to 25 μM, 24 h (FIG. 1A). The protocol:
LX-2 cells were incubated with 0-200 μM ASTX for 24 h and its cytotoxicity was measured using a Cell Counting Kit-8 (Dojindo Inc., Rockville, Md.) as previously described (see Yang et al. Food Chem. Toxicol. 2011, vol. 49, pp. 1560-1564). Positive control (0.5 mM SDS) was run in parallel.

The subject of another data set is mouse primary HSCs. Description: Activation of mouse primary qHSCs (Example 2): morphology, qRT-PCR, Western blot. Here is the method:
Mouse primary HSCs were isolated from C57BL/6J, nuclear erythroid 2-related factor 2 (NRF2) knockout (Nrf2−/−), and wild-type mice using a pronase/collagenase digestion method as described herein Example 1. The cells were then cultured on untreated petri dishes (BD Falcon, Franklin Lakes, N.J.), and maintained in a low-glucose DMEM medium supplemented with 10% FBS, 4 mM L-glutamine, and P/S (100 U/100 μg per mL). Human primary HSCs (Zen-Bio, Research Triangle Park, N.C.) were maintained in a low-glucose DMEM medium containing 2% FBS, 4 mM L-glutamine, 1× nonessential amino acids, 1× vitamins, and P/S (100 U/100 μg per mL). The cells were seeded on a collagen-coated plate for experiments (Sarstedt, Newton, N.C.). LX-2 cells, kindly provided by Dr. Scott Friedman at the Icahn School of Medicine at Mount Sinai (New York, N.Y.), were maintained in a low-glucose DMEM supplemented with 2% FBS, 4 mM L-glutamine, and P/S (100 U/100 μg per mL). All cells were cultured in a 37° C. humidified cell culture chamber with 5% CO2. Cell culture supplies were purchased from HyClone unless stated otherwise (Thermo Scientific, Logan, Utah).
ASTX, provided by Fuji Chemical Industry Co., Ltd. (Toyama, Japan), was prepared in DMSO as described herein in Example 1. After plated on an uncoated dish, mouse qHSCs were incubated with 25 μM ASTX during activation. aHSCs, which were prepared by culturing qHSCs on an uncoated dish for 6 d, were incubated with 25 μM ASTX for 2 or 4 more days. Also, cells were incubated with 3 μM tert-butyl hydrogen peroxide (tBHP, Thermo Scientific) for 12 h with or without 25 μM ASTX. Medium containing ASTX was replenished daily and DMSO vehicle control was always run in parallel. Human primary HSC were treated with 25 μM ASTX for 24 h, after which they were activated by 3 ng/mL of TGFβ1 (Peprotech, Rocky Hill, N.J.) for 24 h.
Total RNA extraction, cDNA synthesis, and qRT-PCR were conducted using a Bio-Rad CFX96 Real-Time system (Bio-Rad, Hercules, Calif.) as previously described (Id.). Primer sequences will be available upon request.
Whole cell lysates and human tissue protein extracts were prepared and Western blot analysis were performed as described (Id.) using antibodies against α-SMA (Sigma, St. Louis, Mo.), HDAC3 (Santa Cruz Biotechnology, Santa Cruz, Calif.), HDAC4 (Santa Cruz Biotechnology), HDAC9 (Abcam, Cambridge, Mass.; Novus Biologicals, Littleton, Colo.), Col1A1 (Sigma). β-tubulin (Santa Cruz) or glyceraldehyde 3-phosphate dehydrogenase (GAPDH) (Santa Cruz) was used as a loading control.
On the technique in general: Quantitative PCR measures a nucleic acid by following its amplification.

For a further data set, the system named is α-SMA. The data set is described as follows: Western blot and immunostaining of α-SMA protein in LX-2 cells. The note with it: 25 μM ASTX (FIGS. 3B, 3C). The protocol:
LX-2 cells were kindly provided by Dr. Scott Friedman at the Icahn School of Medicine at Mount Sinai (New York, N.Y.). Cells were maintained in low-glucose DMEM containing 2% FBS, 4 mM 1-glutamine, 100 U/mL penicillin and 100 μg/mL streptomycin in a 37° C. humidified cell culture chamber providing 5% CO2. LX-2 cells were incubated with varying concentrations of ASTX for 12 or 24 h, and subsequently activated by 2 ng/mL of TGFβ1 (Peprotech, Rocky Hill, N.J.) for 1 to 24 h. Primary mouse HSCs were plated on untreated petri dishes (BD Falcon, Franklin Lakes, N.J.) and maintained in low-glucose DMEM supplemented with 10% FBS, 4 mM L-glutamine, 100 U/mL penicillin and 100 μg/mL streptomycin in a 37° C. humidified cell culture chamber under 5% CO2. ASTX (25 μM) was added at day 2 or day 4 after plating until day 6 with daily media change. […]
Whole cell lysates were prepared to conduct Western blot as we previously described (Id.) using antibodies against α-SMA (Sigma, St. Louis, Mo.), Smad3 (Millipore, Billerica, Mass.), and phospho-Smad3 (Cell Signaling, Danvers, Mass.). β-Tubulin (Santa Cruz Biotechnology, Santa Cruz, Calif.) or β-actin (Sigma, St. Louis, Mo.) was used as a loading control. […] Blots were developed using Westpico horseradish peroxidase chemiluminescence (Pierce, Rockford, Ill.) and images were analyzed using a Chemidoc XRS+system (Bio-Rad) and Image Lab software (Bio-Rad). […]
(In general: In western blotting, separated proteins are transferred to a membrane and probed.)

The mark [1] stands for this setting: ASTX added at day 4 for 2 d during HSC activation (FIG. 8B).

SMILES strings stand for the structures.

For the molecule `CC1=C(/C=C/C(C)=C/C=C/C(C)=C/C=C/C=C(C)/C=C/C=C(C)/C=C/C2=C(C)C(=O)C(O)CC2(C)C)C(C)(C)CC(O)C1=O` (centres unmarked) [ASTX, astaxanthin], the cell viability result in the data set on LX-2 cells was “more than 90%”. In addition, in the data set with mouse primary HSCs (setting [1]), the “NOX2 mRNA” value is reported as “decreased” and the “NOX4 mRNA” value was “significantly increased”. Also, the “protein levels of α-SMA” value in the data set with mouse primary HSCs (ASTX for 2 days during activation (FIG. 7C)) is reported as “noticeably decreased”. Moreover, the cytoplasmic lipid droplets entry in the data set on mouse primary HSCs (day 6, cells treated with ASTX for 2-6 days (FIG. 7A)) is reported as “more lipid droplets than controls”. In the data set on mouse primary HSCs (days 2 and 4 of activation, 25 μM ASTX (FIG. 7A)), the “cell morphology vs control” value is “no noticeable differences”. Besides, the “α-SMA and Col1A1 mRNA” value with mouse primary HSCs (during activation of qHSCs, 25 μM ASTX (FIG. 7B)) is listed as “significantly decreased”. Besides, in the data set with α-SMA, the “protein levels of α-SMA induced by TGFβ1” value is given as “significantly decreased”.

These data come from patent US20160287534A1, “METHODS FOR REVERSING FIBROSIS” (The University of Connecticut, priority 2015, published 2016).
